Values quoted from earlier work in patent US5064812A, “Metal complexes of N-acetyl-glucosaminyl-N-acetyl-muramoyl-L-alanyl-D-isoglutaminyl-(L)-mes o-diamino-pimelyl-(D-amide)-(L)-D-alanyl-D-alanine and their use in pharmaceuticals” (Sour Pliva, priority 1986, dated 1991).

Key:
[1] = prior art literature
[2] = prior art literature; remark: listed apart in the source

Substance: N-acetyl-glucosaminyl-N-acetyl-muramoyl-L-alanyl-D-isoglutaminyl-(L)-meso- diamino-pimelyl-(D-amide)-(L)-D-alanyl-D-alanine [PMG]
- immunostimulating activity [1]: significant immunostimulating
- antimetastatic activity [2]: antimetastatic activity
